# Structures can show the parent of a compound that is named as a salt. Where two headings read alike, the source gives them in different places.
# How the values were obtained:
# Brain AChE = molecular target: T1, Brain AChE (Rattus norvegicus, UniProt P37136); experiment: In vitro inhibition of acetylcholinesterase activity in rat striatum; format: biochemical
# T1 construct: corpora striata dissected free, weighed and homogenized in 19 volumes; from tissue; host or cells: corpora striata of male Wistar rats, whole homogenate
# T1 sequence (P37136 32-614): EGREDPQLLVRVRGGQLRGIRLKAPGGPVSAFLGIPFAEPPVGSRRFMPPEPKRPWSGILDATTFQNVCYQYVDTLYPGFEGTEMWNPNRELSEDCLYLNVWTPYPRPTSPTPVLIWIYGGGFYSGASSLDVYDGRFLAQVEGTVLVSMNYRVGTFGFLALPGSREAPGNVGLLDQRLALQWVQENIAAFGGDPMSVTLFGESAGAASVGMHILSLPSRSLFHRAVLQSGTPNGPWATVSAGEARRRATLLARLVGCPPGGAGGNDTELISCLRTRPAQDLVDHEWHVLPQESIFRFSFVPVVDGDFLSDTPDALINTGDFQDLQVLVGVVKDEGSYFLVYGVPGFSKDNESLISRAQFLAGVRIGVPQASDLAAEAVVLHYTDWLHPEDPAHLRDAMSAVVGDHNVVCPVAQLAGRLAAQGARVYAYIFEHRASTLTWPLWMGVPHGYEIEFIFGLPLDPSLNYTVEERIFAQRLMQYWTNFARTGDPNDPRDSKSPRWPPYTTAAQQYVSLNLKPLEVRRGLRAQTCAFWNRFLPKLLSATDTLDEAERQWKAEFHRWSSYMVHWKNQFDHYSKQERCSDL
# Procedure: In Vitro Inhibition of Acetylcholinesterase Activity in Rat Striatum
# The method described below was used in this invention for assaying cholinesterase activity. This is a modification of the method of Ellman et al., Biochem. Pharmacol. 7, 88 (1961).
# 4. A 2 mM stock solution of the test drug is made up in a suitable solvent and brought to volume with 0.5 mM DTNB (reagent 3).
# Drugs are serially diluted (1:10) such that the final concentration (in cuvette) is 10^-4 M and screened for activity. If active, IC50 values are determined from the inhibitory activity of subsequent concentrations.
# Male Wistar rats are decapitated, brains rapidly removed, corpora striata dissected free, weighed and homogenized in 19 volumes (approximately 7 mg protein/ml) of 0.05M phosphate buffer, pH 7.2 using a Potter-Elvehjem homogenizer. A 25 microliter aliquot of the homogenate is added to 1.0 milliter vehicle or various concentrations of the test drug and preincubated for 10 minutes at 37° C.
# Enzyme activity is measured with the Beckman DU-50 spectrophotometer. This method can be used for IC50 determinations and for measuring kinetic constants.
# Reagents are added to the blank and sample cuvettes as follows:
# Blank values are determined for each run to control for non-enzymatic hydrolysis of substrate and these values are automatically subtracted by the kindata program available on kinetics soft-pac module. This program also calculates the rate of absorbance change for each cuvette.
# Substrate concentration is 10 mM diluted 1:2 in assay yielding final concentration of 5 mM. DTNB concentration is 0.5 mM yielding 0.25 mM final concentration. [formula] IC50 values are calculated from log-probit analysis.
# monoamine oxidase = details: literature reference (2); cited from earlier work
# MAO-B = molecular target: T2, MAO-B (Rattus norvegicus, UniProt P19643); experiment: Ex vivo monoamine oxidase inhibition assay, Type B; format: in vivo; details: po
# T2 construct: the whole brain without cerebellum was dissected rapidly and frozen on dry ice; from tissue; host or cells: whole brain without cerebellum of orally dosed male Wistar rats, homogenate
# T2 sequence (P19643 1-520): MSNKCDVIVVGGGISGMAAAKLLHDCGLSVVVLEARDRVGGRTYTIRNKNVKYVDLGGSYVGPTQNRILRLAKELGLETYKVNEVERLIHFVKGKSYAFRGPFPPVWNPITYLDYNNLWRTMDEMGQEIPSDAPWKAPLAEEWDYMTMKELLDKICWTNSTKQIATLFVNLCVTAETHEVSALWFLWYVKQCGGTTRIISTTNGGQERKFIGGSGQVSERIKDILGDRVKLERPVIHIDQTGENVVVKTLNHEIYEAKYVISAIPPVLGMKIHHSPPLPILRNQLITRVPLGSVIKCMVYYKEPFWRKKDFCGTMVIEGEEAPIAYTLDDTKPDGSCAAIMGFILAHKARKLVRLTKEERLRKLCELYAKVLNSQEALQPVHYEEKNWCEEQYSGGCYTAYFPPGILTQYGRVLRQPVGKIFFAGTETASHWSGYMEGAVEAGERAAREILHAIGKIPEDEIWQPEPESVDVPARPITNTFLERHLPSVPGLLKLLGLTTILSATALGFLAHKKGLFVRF
# Procedure: (§1) The enzyme monoamine oxidase (MAO) exists in two catalytically distinguishable forms termed MAO-A and MAO-B. The ability of the compounds of the invention to inhibit MAO ex vivo in the rat was determined using a procedure adapted from the procedure set forth in The Journal of Pharmacology and Experimental Therapeutics, Vol. 248, No. 1, (1989), pp. 400-414.
# (§2) The compound to be tested was administered to male Wistar rats orally. At specified times after administration the rats were decapitated and the whole brain without cerebellum was dissected rapidly and frozen on dry ice. The samples were stored at -80° C. until measurement of the MAO activity. After thawing, the tissues were homogenized in 5 volumes of 0.1 mol/l of potassium-phosphate buffer, pH 7.4, using all glass homogenisers. MAO activity was determined essentially as described by Wurtman and Axelrod. Biochem. Pharmacol. 12: 1439-1441, (1963).
# (§3) The enzyme reaction was started by addition of 80 μl of the MAO-A substrate [^3 H]-5-HT (0.96 mCi/mmol, final amine concentration is 200 μM or of the MAO-B substrate [^14 C]PEA (0.192 mCi/mmol, final amine concentration is 200 μM and the incubation continued for 10 minutes at 37° C. Then, the reaction was stopped by addition of 200 μl of 2N HCl, and the deaminated metabolites were extracted by vigorous shaking for 10 minutes with 5 ml of diethylether (5-HT-extraction) or n-heptane (PEA-extraction). After centrifugation (1000×g; 30 sec) the water-phase was frozen in dry ice and the organic layer poured into plastic vials containing 5 ml of scintillation cocktail. Finally, the radioactivity was determined in a scintillation spectrometer. Reaction mixtures as described above but lacking the homogenate served as blanks.
# MAO-A [1] = molecular target: T3, MAO-A (Rattus norvegicus, UniProt P21396); experiment: Ex vivo monoamine oxidase inhibition assay, Type A; format: in vivo; details: po
# T3 construct: the whole brain without cerebellum was dissected rapidly and frozen on dry ice; from tissue; host or cells: whole brain without cerebellum of orally dosed male Wistar rats, homogenate
# T3 sequence (P21396 1-526): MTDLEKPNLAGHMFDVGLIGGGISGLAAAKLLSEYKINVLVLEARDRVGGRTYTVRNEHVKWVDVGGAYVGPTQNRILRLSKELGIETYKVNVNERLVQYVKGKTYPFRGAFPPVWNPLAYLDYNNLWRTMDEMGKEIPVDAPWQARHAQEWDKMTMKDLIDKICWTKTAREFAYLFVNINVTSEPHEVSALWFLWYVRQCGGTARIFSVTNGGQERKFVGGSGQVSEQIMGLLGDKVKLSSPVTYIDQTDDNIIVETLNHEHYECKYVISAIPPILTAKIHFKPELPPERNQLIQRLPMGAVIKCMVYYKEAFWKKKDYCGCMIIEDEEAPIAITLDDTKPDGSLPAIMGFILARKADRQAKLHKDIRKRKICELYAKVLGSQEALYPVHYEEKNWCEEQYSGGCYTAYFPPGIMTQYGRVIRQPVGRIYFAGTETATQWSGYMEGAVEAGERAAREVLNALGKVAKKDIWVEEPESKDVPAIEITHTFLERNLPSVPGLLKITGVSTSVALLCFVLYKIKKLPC
# Procedure: as §1, §2, §3
# MAO-A [2] = molecular target: T3, MAO-A; experiment: Inhibition of Type A monoamine oxidase activity in rat brain synaptosomes; format: biochemical; details: substrate [^3 H]-5HT 200 μM; read-out: Inhibitory Concentration - IC50 MAO-A
# Procedure: Inhibition of Type A and Type B Monoamine Oxidase Activity in Rat Brain Synaptosomes
# To determine the selective inhibition of the two forms of monoamine oxidase (MAO).
# Although various methods for measuring MAO activity are available, the described method involves the extraction of the radiolabeled deaminated metabolites of [^3 H]-5HT or [^14 C]-β-phenethylamine. This procedure allows MAO-A and MAO-B activities to be measured either simultaneously or individually (3).
# c. Add 12 μl of [^3 H]-5HT to 2 ml of the 5 mM 5HT solution. (Final amine concentration in the assay is 200 μM: see below.)
# 5. Equal amounts of MAO-A (5HT) and MAO-B (PEA) substrates are combined for simultaneously testing both MAO types, i.e. mixed stock solution of 2.5 mM 5HT and 2.5 mM PEA, 40 μl of this mixed solution gives a 200 μM final concentration of each amine in the assay. When testing only one MAO type, the individual 5 mM stock solutions must be diluted 1:1 with distilled water prior to adding 40 μl to the incubation mixture; i.e., same 200 μM final amine concentration.
# Male Wistar rats weighing 150-250 grams were sacrificed and the brains rapidly removed. Whole brain minus cerebellum was homogenized in 30 volumes of ice-cold, phosphate-buffered 0.25M sucrose, using a Potter-Elvejhem homogenizer. The homogenate was centrifuged at 1000 g for 10 minutes and the supernatant (S1) decanted and recentrifuged at 18,000 g for 20 minutes. The resulting pellet (P2) was resuspended in fresh 0.25M sucrose and served as the tissue source for mitochondrial MAO.
# Tubes are preincubated for 15 minutes at 37° C. and the assay is started by adding 40 μl of combined substrate ([^3 H]-5HT and [^14 C]-PEA) at 15 second intervals. The tubes are incubated for 30 minutes at 37° C. and the reaction stopped by the addition of 0.3 ml 2N HCl. Tissue blank values are determined by adding the acid before the radioactive substrate. The oxidative products of the reaction are extracted with ethyl acetate/toluene (1:1). 5 ml of this mixture is added to the tubes. The resultant mixture is vortexed for 15 seconds to extract the deaminated metabolites into the organic phase and the latter is allowed to separate from the aqueous phase. The tubes are placed in acetone/dry ice bath to freeze the aqueous layer. When this layer is frozen, the top organic layer is poured into a scintillation vial. 10 ml of Liquiscint is added and the samples are counted using window settings for ^14 C in one channel and ^3 H in the second channel. IC50 values are determined by log-probit analysis.
# [3] = rat striatum homogenate, pH 7.2, read-out: Inhibitory Concentration IC50 Brain AChE
# [4] = 50 mg/kg, p.o., 0.5 h, read-out: Ex vivo inhibition (%) of monoamine oxidase Type B
# [5] = 50 mg/kg, p.o., 1.0 h, read-out: Ex vivo inhibition (%) of monoamine oxidase Type B
# [6] = 50 mg/kg, p.o., 4.0 h, read-out: Ex vivo inhibition (%) of monoamine oxidase Type B
# [7] = 50 mg/kg, p.o., 24.0 h, read-out: Ex vivo inhibition (%) of monoamine oxidase Type B
# [8] = 50 mg/kg, p.o., 0.5 h, read-out: Ex vivo inhibition (%) of monoamine oxidase Type A
# [9] = 50 mg/kg, p.o., 1.0 h, read-out: Ex vivo inhibition (%) of monoamine oxidase Type A
# [10] = 50 mg/kg, p.o., 4.0 h, read-out: Ex vivo inhibition (%) of monoamine oxidase Type A
# [11] = 50 mg/kg, p.o., 24.0 h, read-out: Ex vivo inhibition (%) of monoamine oxidase Type A
smiles,measurement,setting,value
"COc1ccc2c(N(C)CCC3CCN(Cc4ccccc4)CC3)noc2c1 [6-Methoxy-N-methyl-N-[2-[4-(1-phenylmethyl)piperdinyl]ethyl]-1,2-benzisoxazol-3-amine sesquihydrochloride]",IC50,Brain AChE; [3],4 µM
CC(C)NNC(=O)c1ccncc1 [iproniazid],selectivity of monoamine oxidase inhibition (type A / type B),monoamine oxidase,nonselective inhibitors
"CN(CCN1CCOCC1)c1noc2ccccc12 [N-methyI-N-[2-(4-morpholinyl)ethyl]-1,2-benzisoxazol-3-amine]",inhibition at 50 mg/kg,MAO-B; [4],32%
same,inhibition at 50 mg/kg,MAO-B; [5],25%
same,inhibition at 50 mg/kg,MAO-B; [6],36%
same,inhibition at 50 mg/kg,MAO-B; [7],0%
same,inhibition at 50 mg/kg,MAO-A [1]; [8],78%
same,inhibition at 50 mg/kg,MAO-A [1]; [9],66%
same,inhibition at 50 mg/kg,MAO-A [1]; [10],76%
same,inhibition at 50 mg/kg,MAO-A [1]; [11],11%
"CNCCNc1noc2cc(OC)ccc12 [6-Methoxy-N-[2-(methylamino)ethyl)-1,2-benzisoxazol-3-amine]",IC50,MAO-A [2],25 µM
"c1ccc2c(NCCN3CCOCC3)noc2c1 [N-[2-(4-Morpholinyl)ethyl]-1,2-benzisoxazol-3-amine]",inhibition at 50 mg/kg,MAO-B; [4],52%
same,inhibition at 50 mg/kg,MAO-B; [5],45%
same,inhibition at 50 mg/kg,MAO-B; [6],33%
same,inhibition at 50 mg/kg,MAO-B; [7],0%
same,inhibition at 50 mg/kg,MAO-A [1]; [8],88%
same,inhibition at 50 mg/kg,MAO-A [1]; [9],85%
same,inhibition at 50 mg/kg,MAO-A [1]; [10],68%
same,inhibition at 50 mg/kg,MAO-A [1]; [11],3.5%
C#CCN(C)CCCOc1ccc(Cl)cc1Cl [Clorgyline],selectivity of monoamine oxidase inhibition (type A / type B),monoamine oxidase,selective inhibitor of the type A enzyme
C#CCN(C)Cc1ccccc1 [pargyline],selectivity of monoamine oxidase inhibition (type A / type B),monoamine oxidase,selective inhibitors of the type B enzyme
"COc1ccc2c(N3CCN(c4ccncc4)CC3)noc2c1Br [7-Bromo-6-methoxy-3-[1-(4-pyridyl)piperazinyl]-1,2-benzisoxazole]",IC50,Brain AChE; [3],14 µM
"CN(C)C(=O)Oc1ccc2c(N3CCN(c4ccncc4)CC3)noc2c1 [3-[1-(4-Pyridyl)piperazinyl]-1,2-benzisoxazol-6-yl dimethylcarbamate]",IC50,Brain AChE,0.88 µM
"CNC(=O)Oc1ccc2c(N(C)CCN3CCOCC3)noc2c1 [3-[[2-(4-Morpholinyl)ethyl]methylamino]1,2-benzisoxazol-6-yl methylcarbamate]",IC50,Brain AChE,13 µM
same,inhibition at 50 mg/kg,"MAO-B; read-out: Ex vivo inhibition (%) of monoamine oxidase Type B, 50 mg/kg, p.o., 0.5 h",19%
same,inhibition at 50 mg/kg,"MAO-B; read-out: Ex vivo inhibition (%) of monoamine oxidase Type B, 50 mg/kg, p.o., 1.0 h",19%
same,inhibition at 50 mg/kg,"MAO-B; read-out: Ex vivo inhibition (%) of monoamine oxidase Type B, 50 mg/kg, p.o., 4.0 h",28%
same,inhibition at 50 mg/kg,"MAO-B; read-out: Ex vivo inhibition (%) of monoamine oxidase Type B, 50 mg/kg, p.o., 24.0 h",12%
same,inhibition at 50 mg/kg,"MAO-A [1]; read-out: Ex vivo inhibition (%) of monoamine oxidase Type A, 50 mg/kg, p.o., 0.5 h",26%
same,inhibition at 50 mg/kg,"MAO-A [1]; read-out: Ex vivo inhibition (%) of monoamine oxidase Type A, 50 mg/kg, p.o., 1.0 h",29%
same,inhibition at 50 mg/kg,"MAO-A [1]; read-out: Ex vivo inhibition (%) of monoamine oxidase Type A, 50 mg/kg, p.o., 4.0 h",42%
same,inhibition at 50 mg/kg,"MAO-A [1]; read-out: Ex vivo inhibition (%) of monoamine oxidase Type A, 50 mg/kg, p.o., 24.0 h",14%
N[C@@H]1C[C@H]1c1ccccc1 (relative stereo) [tranylcypromine],selectivity of monoamine oxidase inhibition (type A / type B),monoamine oxidase,nonselective inhibitors
C#CCN(C)C(C)Cc1ccccc1 (stereo not drawn) [deprenyl],selectivity of monoamine oxidase inhibition (type A / type B),monoamine oxidase,selective inhibitors of the type B enzyme
"COc1cc(Br)c2oc(C3CCNCC3)cc2c1 [Brofaromine, reference compound]",IC50,MAO-A [2],0.18 µM
"CN(C)C(=O)Oc1ccc2c(N(C)CCN3CCOCC3)noc2c1Br [7-Bromo-3-[N-methyl, N,2-(4-morpholinyl)ethyl]amino-1,2-benzisoxazol-6-yl dimethylcarbamate]",IC50,Brain AChE,2 µM
